# In patent publication US9650363B2, “Integrin antagonist conjugates for targeted delivery to cells expressing LFA-1” (Hoffmann-La Roche Inc., priority 2012, dated 2017):
# Target: sLFA-1/ICAM-1 (Homo sapiens, UniProt P05107+P20701, DEL701-769)
# Assay: sLFA-1/ICAM-1 ELISA (inhibition of 5dICAM-Fc binding to coated receptor)
# Settings: control compounds; ICAM-1 binding ELISA, sLFA-1 or Mac-1 coated plates
# Protocol: • Small molecules equipped with a maleimide functionality were covalently conjugated to the RNA through a thioether linkage. To enable this chemistry, ˜60 mg of the RNA containing the 5′-disulfide linker was reduced in water (5 mL) to the corresponding thiol using 1 mL TCEP (0.5 M in water, obtained from Sigma Aldrich). Once analytical anion exchange HPLC indicated completion of the reaction (˜2 h at room temperature) the RNA was precipitated with 30 mL ethanol/3M NaOAc (pH 5.4) 32:1 (v/v) over night at −20° C. The pellet was collected by centrifugation and used for the subsequent small molecule conjugation. • In a typical conjugation reaction 10 mg RNA was dissolved in 2 mL sodium phosphate buffer (0.1 M, pH 7.0). To this solution the small molecule (0.12 mM) in ACN/NMP 1:1 (v/v) was added over a period of 5 minutes. […] The pellet was collected by centrifugation, dissolved in water and if necessary purified by anion exchange HPLC pursuing the procedure given above. If the conjugate is sufficiently pure the reaction mixture was filtered through a size exclusion column (Sephadex G-25, GE Healthcare). Annealing of Oligoribonucleotides to Generate siRNA • Complementary strands were annealed by combining equimolar RNA solutions. […] Absorbance was measured at 450 nm. […]
# Sequence of sLFA-1/ICAM-1 (P20701 26-1090 limits assumed, stated change not applied): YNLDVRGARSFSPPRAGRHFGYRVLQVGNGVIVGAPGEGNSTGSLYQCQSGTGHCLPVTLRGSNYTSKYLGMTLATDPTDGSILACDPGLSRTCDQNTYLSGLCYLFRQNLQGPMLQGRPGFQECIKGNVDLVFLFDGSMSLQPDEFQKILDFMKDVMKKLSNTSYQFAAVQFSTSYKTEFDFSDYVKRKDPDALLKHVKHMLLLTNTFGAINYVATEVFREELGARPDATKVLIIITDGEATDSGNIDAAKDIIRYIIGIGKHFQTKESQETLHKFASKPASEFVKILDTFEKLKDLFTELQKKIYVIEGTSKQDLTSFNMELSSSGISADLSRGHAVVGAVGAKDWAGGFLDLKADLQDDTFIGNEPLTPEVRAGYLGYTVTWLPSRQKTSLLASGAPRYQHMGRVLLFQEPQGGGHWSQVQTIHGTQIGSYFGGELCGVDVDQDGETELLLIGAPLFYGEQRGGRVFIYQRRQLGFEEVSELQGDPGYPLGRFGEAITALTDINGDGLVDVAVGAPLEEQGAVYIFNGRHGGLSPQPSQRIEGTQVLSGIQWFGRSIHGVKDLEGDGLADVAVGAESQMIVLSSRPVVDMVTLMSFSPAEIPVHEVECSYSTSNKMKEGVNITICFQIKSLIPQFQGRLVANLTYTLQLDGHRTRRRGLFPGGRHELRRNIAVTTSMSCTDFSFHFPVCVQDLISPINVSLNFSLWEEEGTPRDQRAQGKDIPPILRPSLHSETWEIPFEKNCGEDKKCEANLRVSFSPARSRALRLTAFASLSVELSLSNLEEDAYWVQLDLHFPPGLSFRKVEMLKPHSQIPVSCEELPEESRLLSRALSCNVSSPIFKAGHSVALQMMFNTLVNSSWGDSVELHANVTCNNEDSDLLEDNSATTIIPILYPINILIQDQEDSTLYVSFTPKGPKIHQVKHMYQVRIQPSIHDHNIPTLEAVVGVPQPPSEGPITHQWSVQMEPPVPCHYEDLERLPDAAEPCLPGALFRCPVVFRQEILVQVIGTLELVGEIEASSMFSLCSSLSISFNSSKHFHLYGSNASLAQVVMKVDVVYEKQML
# Sequence of sLFA-1/ICAM-1 (P05107 23-700 limits assumed, stated change not applied): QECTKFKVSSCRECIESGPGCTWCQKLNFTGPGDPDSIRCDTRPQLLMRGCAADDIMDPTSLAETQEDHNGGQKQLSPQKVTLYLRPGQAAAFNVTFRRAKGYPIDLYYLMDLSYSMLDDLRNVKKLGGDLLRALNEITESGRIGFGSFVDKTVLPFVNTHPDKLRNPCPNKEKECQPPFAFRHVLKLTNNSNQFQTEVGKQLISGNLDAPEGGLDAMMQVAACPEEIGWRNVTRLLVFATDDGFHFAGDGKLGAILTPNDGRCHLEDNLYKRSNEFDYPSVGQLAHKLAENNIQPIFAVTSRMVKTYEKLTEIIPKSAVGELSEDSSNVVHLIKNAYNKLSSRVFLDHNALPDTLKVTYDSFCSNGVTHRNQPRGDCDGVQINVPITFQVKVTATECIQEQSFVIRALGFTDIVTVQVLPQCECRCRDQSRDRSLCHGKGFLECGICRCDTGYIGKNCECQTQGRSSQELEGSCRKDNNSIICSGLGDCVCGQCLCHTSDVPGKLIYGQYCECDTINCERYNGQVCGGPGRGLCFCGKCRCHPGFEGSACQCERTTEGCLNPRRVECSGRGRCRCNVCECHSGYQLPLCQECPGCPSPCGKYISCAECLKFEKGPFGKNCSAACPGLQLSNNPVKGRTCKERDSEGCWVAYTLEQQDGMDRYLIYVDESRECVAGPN
row,IC50,Compound
1,~11 nM,O=C(NCc1cccc(O)c1)c1cc(Cl)c(C(=O)N[C@@H](CNC(=O)c2cc(O)cc(O)c2)C(=O)O)c(Cl)c1 [compound 143]
2,~37 nM,Cc1cc(C(=O)NCc2cccc(O)c2)cc(C)c1C(=O)N[C@@H](CNC(=O)c1cccs1)C(=O)O [compound 142]
